# Data from US4845077A, “Method of inducing ovulation” (Serono Laboratories, Inc., priority 1987, dated 1989).
# System: normal cynomolgus monkeys
# Experiment: GnRH antagonist plus fixed gonadotropin regimen (FSH/LH or FSH only) followed by hCG
# Assay type: in vivo
# Details: GnRH antagonist 1.0 mg/kg/day with gonadotropin 25 IU/day im, cycle days 3-9, versus gonadotropin-only controls
# From the text: All of the groups received a fixed regimen of gonadotropin therapy for seven consecutive days (25 IU/day/im, cycle days 3-9) followed by hCG (1,000 IU/im) on cycle day 10.
substance,measurement,value
"(Ac-pClPhe^1,pClPhe^2, DTrp^3, DArg^6, DAla^10)GnRH HCl [GnRH antagonist]",variability in response to gonadotropin treatment,less
